Assay results as given in ChEMBL document CHEMBL2034870, “Activity landscape modeling of PPAR ligands with dual-activity difference maps” (Bioorg Med Chem, 2012).

How the values were obtained:
[1] = biological target: T1, Peroxisome proliferator-activated receptor alpha (Homo sapiens, UniProt Q07869); assay type: functional
T1 sequence (Q07869 whole entry): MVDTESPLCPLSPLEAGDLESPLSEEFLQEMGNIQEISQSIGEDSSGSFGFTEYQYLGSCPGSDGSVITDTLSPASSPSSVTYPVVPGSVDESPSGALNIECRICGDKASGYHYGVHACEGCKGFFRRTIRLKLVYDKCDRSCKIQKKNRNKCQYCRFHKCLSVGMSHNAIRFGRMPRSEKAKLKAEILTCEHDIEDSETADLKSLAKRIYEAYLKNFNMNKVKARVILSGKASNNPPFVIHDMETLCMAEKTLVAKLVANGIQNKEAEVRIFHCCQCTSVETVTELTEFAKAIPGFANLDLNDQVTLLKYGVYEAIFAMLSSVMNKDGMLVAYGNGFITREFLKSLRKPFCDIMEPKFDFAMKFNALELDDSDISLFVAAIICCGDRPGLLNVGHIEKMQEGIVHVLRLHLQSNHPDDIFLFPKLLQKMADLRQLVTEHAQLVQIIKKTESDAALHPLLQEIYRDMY

[2] = biological target: T2, Peroxisome proliferator-activated receptor delta (Homo sapiens, UniProt Q03181); assay type: functional
T2 sequence (Q03181 whole entry): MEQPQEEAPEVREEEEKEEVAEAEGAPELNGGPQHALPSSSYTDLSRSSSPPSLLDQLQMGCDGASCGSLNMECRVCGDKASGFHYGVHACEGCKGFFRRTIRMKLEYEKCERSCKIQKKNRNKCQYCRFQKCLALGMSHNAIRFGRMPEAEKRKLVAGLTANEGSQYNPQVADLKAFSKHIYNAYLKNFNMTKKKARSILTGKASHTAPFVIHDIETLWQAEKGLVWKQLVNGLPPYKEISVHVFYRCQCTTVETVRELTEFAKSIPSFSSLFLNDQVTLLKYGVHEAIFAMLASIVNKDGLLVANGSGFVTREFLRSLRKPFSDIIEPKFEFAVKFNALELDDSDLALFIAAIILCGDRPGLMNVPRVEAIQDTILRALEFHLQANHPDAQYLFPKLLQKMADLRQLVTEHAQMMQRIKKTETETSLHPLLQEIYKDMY

Compound | IC50 ([1]; read-out: pIC50 (converted)) [nM] | IC50 ([2]; read-out: pIC50 (converted)) [nM] | IC50 ([1]; read-out: IC50) [nM] | IC50 ([2]; read-out: IC50) [nM]
CCCc1c(OCCCSc2ccc(CC(=O)O)cc2Cl)ccc(/C(CC)=N\O)c1O | 100 | 10 |  | 
O=C1NC(=O)[C@H](c2cccc(OCCCOc3ccc(Oc4ccccc4)cc3)c2)S1 |  | 190 |  | 
CCCC[C@@](Cc1ccc(OCCc2nc(-c3ccccc3)oc2C)cc1)(Oc1ccccc1)C(=O)O |  |  | 1850 | 7230
Cc1oc(-c2ccccc2)nc1CCOc1ccc(C[C@H](Oc2ccccc2)C(=O)O)cc1 |  |  | 1110 | 7040
CC[C@@](Cc1ccc(OCCc2nc(-c3ccccc3)oc2C)cc1)(Oc1ccccc1)C(=O)O | 473 | 5070 |  | 
CCCn1c(CCCc2ccc(OC(C)(C)C(=O)O)cc2)nn([C@H](C)c2ccccc2)c1=O | 220 | 1500 |  | 
CC(C)Cc1cc(Oc2ccccc2)ccc1OCCCOc1ccc([C@@H]2SC(=O)NC2=O)cc1 |  |  | 340 | 160
CCCc1cc(Oc2ccc(O)cc2)ccc1OCCCOc1cccc([C@@H]2SC(=O)NC2=O)c1 |  |  |  | 3800
CCO[C@H](Cc1ccc2c(c1)cc(C)n2Cc1nc(-c2ccc(C(F)(F)F)cc2)oc1C)C(=O)O | 352 | 372 |  | 
O=C(O)[C@@H]1CCc2ccc(OCCCOc3ccc(OCC(F)(F)F)cc3Cl)cc2O1 |  |  | 810 | 6900
CCCO[C@H](Cc1ccc2c(ccn2Cc2nc(-c3ccc(C(F)(F)F)cc3)oc2C)c1)C(=O)O | 40 |  |  | 
Cc1oc(-c2ccc(C(F)(F)F)cc2)nc1Cn1ccc2cc(C[C@@H](OC(C)C)C(=O)O)ccc21 | 61 | 891 |  | 
CCCc1cc(-c2ccccc2)ccc1OCCCOc1cccc([C@@H]2OC(=O)NC2=O)c1 |  | 1510 |  | 
CCO[C@@H](Cc1cccc2c1ccn2Cc1nc(-c2ccccc2)oc1C)C(=O)O | 125 | 3500 |  | 
CCCc1cc(OC2CCCC2)ccc1OCCCOc1cccc([C@@H]2SC(=O)NC2=O)c1 |  | 920 |  | 
CCCc1cc(-c2noc3ccccc23)ccc1OCCCOc1cccc([C@@H]2SC(=O)NC2=O)c1 |  | 140 |  | 
CCCc1cc(C(=O)c2ccccc2)ccc1OCCCOc1cccc([C@@H]2SC(=O)NC2=O)c1 |  | 170 |  | 
CCCc1cc(C2CCCC2)ccc1OCCCOc1cccc([C@H]2OC(=O)NC2=O)c1 |  | 3850 |  | 
